Assay results from patent US20050119285A1, “Treatment of neurological disorders related to rapid eye movement (REM) sleep disturbances with NPY Y5 receptor antagonists” (Pfizer Inc, priority 2003, published 2005).
Marks after values point to notes of the source that are not given here.

System: adult, male Wistar rats
Assay: Sleep measurement by EEG in rats (in vivo sleep study)
Design: species or system rat
Conditions: for Maximal change in REM sleep: cumulative time in REM sleep compared to vehicle controls, first 24 hours after dose
Procedure: Sleep measurement by EEG: For the EEG sleep measurements, adult, male Wistar rats were anesthetized and surgically implanted with a cranial implant for chronic electro-encephalogram (EEG) and electromyogram (EMG) recording. At least three weeks were allowed for the animal to recover from surgery. Food and water were available ad libitum and the ambient temperature was 24±1° C. A 24-hr light-dark cycle (LD 12:12) was maintained throughout the study using fluorescent light. Light intensity averaged 35-40 lux at mid-level inside the cage. Animals were undisturbed for two days before and after each treatment. Sleep and wakefulness were determined using a microcomputer-based sleep-wake and physiological monitoring system. The system monitored amplified EEG (×10,000, bandpass 1-30 Hz; digitization rate 100 Hz, integrated EMG (bandpass 10-100 Hz, RMS integration), and telemetered body temperature and non-specific locomotor activity and drinking activity, from 16 rodents simultaneously. Arousal states were classified on-line as NREM sleep, REM sleep, wake, or theta-domihated wake every 10 seconds using EEG period and amplitude feature extraction and ranked membership algorithms. Individually taught EEG-arousal-state templates and EMG criteria differentiated REM sleep from theta-dominated wake. Drinking and locomotor activity were automatically recorded as discrete events every 10 seconds, and body temperature was recorded each minute. Data quality was assured by frequent on-line inspection of the EEG and EMG signals.
Drug Treatment: A NPY Y1 receptor antagonist was administered at 5, 10, 20 or 40 mg/kg in 0.25% methylcellulose vehicle. The NPY Y5 receptor antagonist of Formula la was administered at 5, 10 or 40 mg/kg and the NPY Y5 receptor antagonist of Formula IIa was administered at 10 and 40 mg/kg (both in 32% hydroxypropyl-betacyclodextrin vehicle). Drugs and vehicles were administered by oral gavage. Rats were randomly assigned to receive treatments in […]. The recording duration for the bioassay was 30 hours before and after treatment. At least 7 days “washout” elapsed between each treatment.
Variables recorded by EEG sleep-wake variables included NREM, REM, total sleep, and duration of sleep and wake bouts and were defined and computed as follows: • Wakefulness, NREM sleep, and REM sleep: percent time in state per hour or per 5 minute bin. • Cumulation of total sleep, NREM sleep, REM sleep, locomotor activity, and drink activity: post-treatment accumulated change over baseline. Change—from-baseline scores were computed by subtracting from the post-treatment value the baseline value at the corresponding circadian time. The change-from-baseline scores were then cumulated in hourly bins, and these values were plotted. • Sleep, wakefulness, and REM sleep bouts: The longest bout and the average bout of uninterrupted sleep each hour, measured in minutes. “Interruption” is defined as 3 or more consecutive 10 sec epochs of wakefulness. An analogous quantification is carried out for bouts of wakefulness and REM sleep. […] Pre-clinical measures of sleep bout length are also strong predictors of soporific efficacy in humans. • Locomotor activity: counts per hour or counts per 5 minute bin. • Locomotor activity intensity: locomotor activity counts per minute of EEG-defined wakefulness. This variate allows an assessment of locomotor activity that is independent of the amount of time awake, thus, it may be used to quantify the specificity of a wake- or sleep-promoting effect (Edgar et al. 1997).
Statistical Analysis—Mixed Model: Treatment effects were analyzed by a mixed model for repeated measures data. Mixed models were performed comparing each active-treatment with vehicle. For all models analysis was based on post-treatment hours with each hour adjusted for the corresponding baseline hour. Adjusting for baseline takes into account any differences between groups during baseline. […]

[1] = 5, 10 and 40 mg/kg, oral gavage

O=C1OC2(CCN(C(=O)Nc3ccc(C(F)(F)F)cn3)CC2)c2ccccc21 [Formula Ia]
Effect on NREM sleep [1]: increased NPEM sleep
Effect on REM sleep [1]: significantly reduced REM sleep in a dose-related manner
Effect on sleep continuity (sleep bout length) [1]: increased
Persistence of REM sleep inhibiting and NREM sleep promoting effects (after 40 mg/kg, oral gavage): at least 48 hours
REM sleep inhibiting and NREM sleep promoting effects still observed after dosing (after 40 mg/kg, oral gavage): ≥ 4.5 days
Maximal change in REM sleep (dose 5 (mg/kg), oral gavage): −23.8* minutes
Maximal change in REM sleep (dose 10 (mg/kg), oral gavage): −42.6* minutes
Maximal change in REM sleep (dose 40 (mg/kg), oral gavage): −74.4* minutes
Effect on sleep (REM and NREM) in a laboratory animal (summary statement, no dose given): affected sleep (REM and NREM)
